Measurements as given in patent publication US8163909B2, “Substituted hydroxyethyl amine compounds as beta-secretase modulators and methods of use” (Amgen Inc., priority 2007, dated 2012).
Read-outs that look alike come from different tables or passages of the source.

Columns and labels:
[1] = test system: Aβ40 in conditioned medium of cells stably expressing Amyloid Precursor Protein (APP); assay: In vitro BACE cell-based assay (Aβ40 in conditioned medium, sandwich ELISA); conditions: Homo sapiens;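 note: compounds added as a dilution series, secreted peptide quantified by europium time-resolved fluorescence readout, potency fitted from percent of control versus compound concentration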
[2] = Microsomal stability assay, rat liver microsomes;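 note: rat liver microsomes (0.25 mg/mL) with about 1 µM compound plus 1 mM NADPH, pH 7.4, 37 °C for 30 min, parent left measured by LC-MS/MS against 0 min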
[3] = Microsomal stability assay, human liver microsomes;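 note: pooled human liver microsomes at 0.25 mg/mL with 1 µM compound and NADPH at 37 °C, pH 7.4, for 30 min, unchanged parent quantified by LC-MS/MS against the 0 min sample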
CYP3A4 (CYP3A) = CYP3A4 (CYP3A) (Homo sapiens, UniProt P08684); assay: in vitro; conditions: microsomes, pH 7.4;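 note: inhibition of CYP3A-mediated 1-hydroxymidazolam formation after 10 min incubation with NADPH, quantified by HPLC MS relative to metabolite produced without test compound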
CYP2D6 = CYP2D6 (Homo sapiens, UniProt P10635); assay: CYP2D6 inhibition assay (bufuralol, pooled human liver microsomes)
[4] = target: Beta Secretase enzyme (BACE) (Homo sapiens, UniProt P56817); assay: In vitro enzymatic BACE FRET (fluorescence resonance energy transfer) assay; type: biochemical;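 note: fluorescence read after 1 h with 50 nM quenched peptide substrate spanning the BACE cleavage site, in pH 4.2 acetate buffer containing 10% DMSO and nonionic detergent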
[5] = HEK293, HEK cells, read-out: HEK cell assay (IC50)
[6] = read-out: BACE1 FRET assay (IC50)
[7] = HEK293, HEK cell-based assay IC50, read-out: HEK cell assay
[8] = 2D6 IC50 (uM), CYP2D6 inhibition
[9] = BACE enzyme assay IC50, read-out: BACE1 FRET assay
[10] = HEK293, Table 2, HEK cells, read-out: HEK cell assay
[11] = 2D6 IC50, CYP enzyme inhibition
[12] = Table 2, read-out: BACE1 FRET assay
[13] = HEK293, HEK cells, read-out: HEK cell assay
[14] = 2D6 IC50 (uM), CYP enzyme inhibition
[15] = BACE enzyme assay, read-out: BACE1 FRET assay
[16] = HEK293, cell-based assay, HEK cells, IC50's in uM, read-out: HEK cell assay
[17] = BACE enzyme assay, IC50's in uM, read-out: BACE1 FRET assay
[18] = HEK293, HEK cell-based assay, IC50's in uM, read-out: HEK cell assay

Sequence of Beta Secretase enzyme (BACE) (P56817 46-501): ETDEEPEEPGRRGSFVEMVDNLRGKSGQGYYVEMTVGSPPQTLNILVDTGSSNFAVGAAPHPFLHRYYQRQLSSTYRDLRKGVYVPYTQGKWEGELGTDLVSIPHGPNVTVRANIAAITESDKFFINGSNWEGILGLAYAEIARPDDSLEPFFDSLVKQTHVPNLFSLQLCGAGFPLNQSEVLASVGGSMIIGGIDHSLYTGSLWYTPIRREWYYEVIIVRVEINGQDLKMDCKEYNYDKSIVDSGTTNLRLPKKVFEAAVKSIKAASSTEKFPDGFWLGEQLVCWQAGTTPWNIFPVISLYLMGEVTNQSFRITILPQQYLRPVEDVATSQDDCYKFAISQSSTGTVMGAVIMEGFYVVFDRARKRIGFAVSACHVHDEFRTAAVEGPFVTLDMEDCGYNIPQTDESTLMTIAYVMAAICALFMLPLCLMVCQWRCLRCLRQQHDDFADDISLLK
Sequence of CYP3A4 (CYP3A) (P08684 2-503): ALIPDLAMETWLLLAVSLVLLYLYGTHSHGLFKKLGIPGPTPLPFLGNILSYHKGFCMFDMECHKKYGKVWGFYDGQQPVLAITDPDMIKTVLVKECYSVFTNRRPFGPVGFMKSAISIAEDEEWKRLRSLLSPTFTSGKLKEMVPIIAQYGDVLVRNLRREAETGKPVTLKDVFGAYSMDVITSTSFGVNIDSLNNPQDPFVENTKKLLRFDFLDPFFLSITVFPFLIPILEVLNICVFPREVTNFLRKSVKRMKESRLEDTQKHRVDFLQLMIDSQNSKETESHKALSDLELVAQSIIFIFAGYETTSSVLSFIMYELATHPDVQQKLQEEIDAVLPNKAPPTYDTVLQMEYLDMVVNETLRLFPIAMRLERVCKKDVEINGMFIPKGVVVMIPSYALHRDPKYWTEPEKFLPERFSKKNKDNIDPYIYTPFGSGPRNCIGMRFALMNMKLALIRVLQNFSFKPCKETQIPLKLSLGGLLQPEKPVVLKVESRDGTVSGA
Sequence of CYP2D6 (P10635 whole entry): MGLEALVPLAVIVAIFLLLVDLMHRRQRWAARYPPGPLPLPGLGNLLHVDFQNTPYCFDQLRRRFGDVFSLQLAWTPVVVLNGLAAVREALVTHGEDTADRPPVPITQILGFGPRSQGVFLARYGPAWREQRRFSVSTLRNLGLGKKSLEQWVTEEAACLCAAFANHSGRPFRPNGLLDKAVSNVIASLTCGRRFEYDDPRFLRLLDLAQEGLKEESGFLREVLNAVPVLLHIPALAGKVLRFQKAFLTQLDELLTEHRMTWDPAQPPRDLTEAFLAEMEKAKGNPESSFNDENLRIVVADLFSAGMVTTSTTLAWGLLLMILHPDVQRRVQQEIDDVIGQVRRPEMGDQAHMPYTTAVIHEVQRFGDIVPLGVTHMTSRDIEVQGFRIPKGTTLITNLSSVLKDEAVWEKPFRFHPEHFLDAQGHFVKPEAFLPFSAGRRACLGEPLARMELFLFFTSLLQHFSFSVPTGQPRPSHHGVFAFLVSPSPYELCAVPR

| Structure (SMILES) | RLM ([2]; rat liver microsomes) [µL/min/mg] | HLM ([3]; human liver microsomes) [µL/min/mg] | IC50 (CYP3A4 (CYP3A)) [nM] | RLM ([2]; rat liver microsomal data) [µL/min/mg] | HLM ([3]; human liver microsomal data) [µL/min/mg] | IC50 [1, 13] [µM] | IC50 (CYP2D6; [14]) [µM] | IC50 [4, 15] [µM] | other results |
| --- | --- | --- | --- | --- | --- | --- | --- | --- | --- |
| CC(=O)N[C@@H](Cc1cc(F)cc(-c2ccncc2)c1)[C@H](O)CN[C@H]1CC2(CCC2)Oc2ccc(CC(C)(C)C)cc21 [Example 433, N-((2S,3R)-4-((S)-2,2-spirocyclobutyl-6-neopentyl-3,4-dihydro-2H-chromen-4-ylamino)-1-(3-fluoro-5-(pyridin-4-yl)phenyl)-3-hydroxybutan-2-yl)acetamide] | 590 | 492 | 1100 | – | – | – | – | – | IC50 [1, 5]: 0.038 µM; IC50 (CYP2D6; 2D6 IC50, CYP2D6 inhibition): 0.2 µM; IC50 [4, 6]: 0.021 µM |
| COCC(=O)N[C@@H](Cc1cc(F)cc(F)c1)[C@H](O)CN[C@H]1CC(C)(C)Oc2c1cc(Br)c1c2OCO1 [compound 746] | 144 | 150 | 200 | – | – | – | – | – | IC50 [1, 7]: 0.185 µM; IC50 (CYP2D6; [8]): 3.8 µM; IC50 [4, 9]: 0.275 µM |
| CC(=O)N[C@@H](Cc1cc(F)cc(F)c1)[C@H](O)CN[C@H]1CC2(CCC2)Oc2c1cc(CC(C)(C)C)nc2-c1ccncc1 [compound 584] | 50 | 18 | 100 | – | – | – | – | – | IC50 [1, 5]: 0.013 µM; IC50 (CYP2D6; 2D6 IC50, CYP2D6 inhibition): 14.5 µM; IC50 [4, 6]: 0.011 µM |
| C[C@@H](O)C(=O)N[C@@H](Cc1ccc(F)cc1)[C@H](O)CN[C@H]1CC2(CCC2)Oc2ncc(CC(C)(C)C)cc21 [compound 442] | – | – | 750 | 150.333 | 117.333 | – | – | – | IC50 [1, 10]: 0.016 µM; IC50 (CYP2D6; [11]): 6.75 µM; IC50 [4, 12]: 0.013 µM |
| Cc1ccc(CN2CCO[C@@H](C(=O)N[C@@H](Cc3ccc(F)cc3)[C@H](O)CN[C@H]3CC4(CCC4)Oc4ncc(CC(C)(C)C)cc43)C2)cc1 [compound 709] | 375 | 614 | 300 | – | – | – | – | – | IC50 [1, 7]: 0.038 µM; IC50 (CYP2D6; [8]): 3.7 µM; IC50 [4, 9]: 0.028 µM |
| CO[C@H](C)C(=O)N[C@@H](Cc1cc(F)cc(F)c1)[C@H](O)CN[C@H]1CC2(CCC2)Oc2c1cc(CC(C)(C)C)nc2-n1ccnc1 [compound 495] | – | – | 100 | 62 | 41 | 0.08 | 2 | 0.02 | – |
| COCC(=O)N[C@@H](Cc1ccc2c(c1)OCO2)[C@H](O)CN[C@H]1CC2(CCC2)Oc2ncc(CCC(F)(F)F)cc21 [compound 445] | – | – | 200 | 121 | 24 | – | – | – | IC50 [1, 10]: 0.621 µM; IC50 (CYP2D6; [11]): 4.1 µM; IC50 [4, 12]: 0.754 µM |
| CO[C@@H](C)C(=O)N[C@@H](Cc1ccc2c(c1)OCO2)[C@H](O)CN[C@H]1CC2(CCC2)Oc2ccc(C[C@@H](C)F)cc21 [compound 499] | – | – | 300 | 213 | 156 | 0.473 | 0.7 | 1.36 | – |
| COCC(=O)N[C@@H](Cc1cc(F)cc(F)c1)[C@H](O)CN[C@H]1CC(C)(C)Oc2c1cc(CC(C)C)c1c2OCO1 [compound 748] | 179 | 190 | 100 | – | – | – | – | – | IC50 [1, 7]: 0.126 µM; IC50 (CYP2D6; [8]): 8.2 µM; IC50 [4, 9]: 0.013 µM |
| CO[C@H](C)C(=O)N[C@@H](Cc1cccc(F)c1)[C@H](O)CN[C@@H]1CC2(CCC2)Oc2c1cc(CC(C)(C)C)nc2-n1ccnc1 [compound 501] | – | – | 100 | 175 | 86 | > 10 | 2.8 | 5.3 | – |
| CC(C)(C)Cc1cnc2c(c1)[C@@H](NC[C@@H](O)[C@H](Cc1cc(F)cc(-c3nccs3)c1)NC(=O)[C@H]1CCCO1)CC1(CCC1)O2 [compound 877] | – | – | 200 | 64 | 46 | – | – | – | IC50 [1, 16]: 0.012 µM; IC50 (CYP2D6; [11]): 0.7 µM; IC50 [4, 17]: 0.005 µM |
| CO[C@H](C)C(=O)N[C@@H](Cc1ccc2c(c1)OCO2)[C@H](O)CN[C@H]1CC2(CCC2)C(=O)c2ncc(CC(C)(C)C)cc21 [compound 626] | 260 | 153 | 500 | – | – | – | – | – | IC50 [1, 5]: 0.108 µM; IC50 (CYP2D6; 2D6 IC50, CYP2D6 inhibition): 14.4 µM; IC50 [4, 6]: 0.133 µM |
| COCC(=O)N[C@@H](Cc1cc(F)cc(-c2nccs2)c1)[C@H](O)CN[C@H]1CC2(CCC2)Oc2ncc(CC(C)C)cc21 [Example 695, N-((1S,2R)-1-(3-fluoro-5-(1,3-thiazol-2-yl)benzyl)-2-hydroxy-3-(((4′S)-6′-(2-methylpropyl)-3′,4′-dihydrospiro[cyclobutane-1,2′-pyrano[2,3-b]pyridin]-4′-yl)amino)propyl)-2-methoxyacetamide] | 64 | 77 | 100 | – | – | – | – | – | IC50 [1, 7]: 0.011 µM; IC50 (CYP2D6; [8]): 0.5 µM; IC50 [4, 9]: 0.004 µM |
| CC(C)(C)Cc1cnc2c(c1)[C@@H](NC[C@@H](O)[C@H](Cc1ccc(F)cc1)NC(=O)[C@@H]1CCO1)CC1(CCC1)O2 [Example 441, (2S)—N-((1S,2R)-3-(((4′S)-6′-(2,2-dimethylpropyl)-3′,4′-dihydrospiro[cyclobutane-1,2′-pyrano[2,3-b]pyridin]-4′-yl)amino)-1-((4-fluorophenyl)methyl)-2-hydroxypropyl)-2-oxetanecarboxamide] | – | – | 1100 | 124 | 416 | 0.012 | ≥ 27 | 0.012 | – |
| CC(=S)N[C@@H](Cc1cccc(-c2nccs2)c1)[C@H](O)CN[C@H]1CC2(CCC2)Oc2ncc(CC(C)(C)C)cc21 [compound 793] | – | – | 100 | 60 | 99 | – | 0.4 | – | IC50 [1, 18]: 0.067 µM; IC50 [4, 17]: 0.03 µM |
| CO[C@H](C)C(=O)N[C@@H](Cc1cccc(F)c1)[C@H](O)CN[C@H]1CC2(CCC2)Oc2c1cc(CC(C)(C)C)cc2-n1ccnc1 [compound 522] | – | – | 100 | 141 | 43 | 0.013 | 3.1 | 0.044 | – |
| CC(C)(C)Cc1cnc2c(c1)[C@@H](NC[C@@H](O)[C@H](Cc1ccc(F)cc1)NC(=O)[C@@H]1CN(Cc3cscn3)CCO1)CC1(CCC1)O2 [compound 786] | – | – | 300 | 129 | 169 | – | 7.9 | – | IC50 [1, 18]: 0.029 µM; IC50 [4, 17]: 0.047 µM |
| COCC(=O)N[C@@H](Cc1cccc(F)c1)[C@H](O)CN[C@H]1CC2(CCC2)Oc2ccc(C[C@H](C)F)cc21 [compound 512] | – | – | 5700 | 829 | 614 | 0.061 | 0.5 | 0.028 | – |
| CC(C)(C)Cc1cnc2c(c1)[C@@H](NC[C@@H](O)[C@H](Cc1ccc3c(c1)OCO3)NC(=O)C1CCO1)CC1(CCC1)O2 (stereo partly drawn) [compound 503, N-((1S,2R)-1-(1,3-benzodioxol-5-ylmethyl)-3-(((4′S)-6′-(2,2-dimethylpropyl)-3′,4′-dihydrospiro[cyclobutane-1,2′-pyrano[2,3-b]pyridin]-4′-yl)amino)-2-hydroxypropyl)-2-oxetanecarboxamide] | – | – | 200 | 130 | 23 | 0.017 | 3.3 | 0.021 | – |
| COCC(=O)N[C@@H](Cc1cc(Br)cc(Br)c1)[C@H](O)CN[C@H]1CC2(CCC2)Oc2ncc(CC(C)(C)C)cc21 [compound 892] | – | – | 100 | 274 | 399 | – | – | – | IC50 [1, 16]: 0.009 µM; IC50 (CYP2D6; [11]): 3.9 µM; IC50 [4, 17]: 0.07 µM |
